What all share (assay type): in vivo
The test system of assay [1] is Setaria faberi (SETFA). The experiment in a line: Post-emergence efficacy, Setaria faberi. The following applies: 15DAA, rate 3 g/ha, 100=total damage to plant, 0=no damage. An excerpt: (§1) When active ingredients are combined, the activity to be expected (E) for any given active ingredient combination obeys the so-called Colby Formula and can be calculated as follows (Colby, S. R., Calculating synergistic and antagonistic responses of herbicide combination, Weeds, Vol. 15, pages 20-22; 1967): • ppm =milligrams of active ingredient (a.i.) per litre • X=% action by first active ingredient using p ppm of the active ingredient • Y=% action by second active ingredient using q ppm of the active ingredient.
(§2) According to Colby, the expected action of active ingredients A+B using p+q ppm of active ingredient is represented by the following formula: […]
If the action actually observed (O) is greater than the expected action E then the action of the combination is super-additive, i.e. there is a synergistic effect. […]
(§3) The efficacy of various compositions of the present invention were tested against plants including the following species: Echinochloa crus-gali (ECHCG), Lolium multiflorum(LOLMU), Setaria faberi (SETFA) and Digitaria insularis (TRCIN). The compositions are applied post-emergence, and the tests evaluated at certain days-after-application (DAA) as indicated. The tests were evaluated (100=total damage to plant; 0=no damage to plant), and the results are shown below in Tables B1 to B4.

In assay [2] the test system is Lolium multiflorum (LOLMU). Description: Post-emergence efficacy, Lolium multiflorum. To be noted: 15DAA.
Description: as §1, §2
(§4) If the action actually observed (O) is greater than the expected action E then the action of the combination is super-additive, i.e. there is a synergistic effect. In mathematical terms, synergism corresponds to a positive value for the difference of (O-E). In the case of purely complementary addition of activities (expected activity), said difference (O-E) is zero. A negative value of said difference (O-E) signals a loss of activity compared to the expected activity.
as §3

Assay [3] has as its system Echinochloa crus-gali (ECHCG). Description: Post-emergence efficacy, Echinochloa crus-gali. To be noted: 16DAA.
Description: as §1, §2, §4, §3

Assay [4] concerns Digitaria insularis (TRCIN). Description: Post-emergence efficacy, Digitaria insularis. The following applies: 13DAA.
Description: as §1, §2, §4, §3

The mark [5] stands for this setting: rate 1.88 g/ha, 100=total damage, 0=no damage.

For the compound `CCSC(C)CC1CC(=O)C(/C(CC)=N/OC/C=C/Cl)=C(O)C1` (stereo not shown) [Formula B1, clethodim], the Observed in assay [1] is recorded as 25.
For the compound `CCCCOC(=O)[C@@H](C)Oc1ccc(Oc2ccc(C(F)(F)F)cn2)cc1` [Formula B4a, fluazifop-P-butyl], the Observed in assay [2] (rate 8 g/ha) is 68.
Take `COC(=O)[C@@H](C)Oc1ccc(Oc2ncc(C(F)(F)F)cc2Cl)cc1` [Formula B5a, haloxyfop-P-methyl]: the Observed in assay [3] (rate 8 g/ha) was determined as 13.
`CCc1cc(C)cc(CC)c1-c1c(OC(=O)C(C)(C)C)n2n(c1=O)CCOCC2` [Formula B6, pinoxaden]: the Observed in assay [4] (rate 0.94 g/ha) was determined as 0; in assay [4] (setting [5]) it was 20.
Turning to `CC#Cc1ccc(C2=C(OC(=O)OC)C3CCC(C3)C2=O)c(OC)c1` (stereo not shown) [Ic], the Observed in assay [2] (rate 6.25 g/ha, 100=total damage, 0=no damage) is 44; in assay [2] (rate 12.5 g/ha) it was 59; in assay [3] (rate 3.125 g/ha, 100=total damage, 0=no damage) it was 30; in assay [3] (rate 6.25 g/ha), 88; in assay [4] (setting [5]) it was 48.
